Measurements published in ChEMBL document CHEMBL1201862, “PubChem BioAssay data set” (2004).
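Compound exposure: 48 hours, 5 concentrations, 96-well plates. GI50 marks 50% less growth.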 Active and inactive are the calls of the source. No stated cut-off is given here; in the data, active = GI50 up to about 1.1 µM and inactive = higher.

How the values were obtained:
Test in all cases: NCI anticancer screen, dose series, 48 h
786-0 = system: 786-0
A549 = system: A549
ACHN = system: ACHN
CAKI-1 = system: CAKI-1
CCRF-CEM = system: CCRF-CEM
COLO 205 = system: COLO 205
DLD-1 = system: DLD-1
DMS-114 = system: DMS-114
DMS-273 = system: DMS-273
HCC 2998 = system: HCC 2998
HCT-116 = system: HCT-116
HCT-15 = system: HCT-15
HL-60 = system: HL-60
HOP-62 = system: HOP-62
HOP-92 = system: HOP-92
HT-29 = system: HT-29
IGROV-1 = system: IGROV-1
K562 = system: K562
KM-20L2 = system: KM-20L2
KM12 = system: KM12
LXFL 529 = system: LXFL 529
M14 = system: M14
M19-MEL = system: M19-MEL
MOLT-4 = system: MOLT-4
Malme-3M = system: Malme-3M
NCI-H226 = system: NCI-H226
NCI-H23 = system: NCI-H23
NCI-H460 = system: NCI-H460
NCI-H522 = system: NCI-H522
OVCAR-3 = system: OVCAR-3
OVCAR-4 = system: OVCAR-4
OVCAR-5 = system: OVCAR-5
OVCAR-8 = system: OVCAR-8
RPMI-8226 = system: RPMI-8226
SF-268 = system: SF-268
SF-295 = system: SF-295
SF-539 = system: SF-539
SK-MEL-28 = system: SK-MEL-28
SK-MEL-2 = system: SK-MEL-2
SK-MEL-5 = system: SK-MEL-5
SNB-19 = system: SNB-19
SNB-75 = system: SNB-75
SR = system: SR
SW-620 = system: SW-620
TK-10 = system: TK-10
U-251 = system: U-251
UACC-257 = system: UACC-257
UACC-62 = system: UACC-62
UO-31 = system: UO-31
EKVX = system: EKVX
RXF 393 = system: RXF 393
SK-OV-3 = system: SK-OV-3
SN12C = system: SN12C
SNB-78 = system: SNB-78

CN1CCN(CCNc2ccc(CO)c3sc4ccccc4c(=O)c23)CC1
GI50 (786-0): 5.87 µM (inactive)
GI50 (A549): 10.5 µM (inactive)
GI50 (ACHN): 13.8 µM (inactive)
GI50 (CAKI-1): 11.9 µM (inactive)
GI50 (CCRF-CEM): 4.34 µM (inactive)
GI50 (COLO 205): 8.77 µM (inactive)
GI50 (DLD-1): 11.7 µM (inactive)
GI50 (DMS-114): 9.57 µM (inactive)
GI50 (DMS-273): 3.21 µM (inactive)
GI50 (HCC 2998): 6.87 µM (inactive)
GI50 (HCT-116): 5.69 µM (inactive)
GI50 (HCT-15): 6.32 µM
GI50 (HL-60): 8.93 µM (inactive)
GI50 (HOP-62): 5.06 µM (inactive)
GI50 (HOP-92): 13.4 µM (inactive)
GI50 (HT-29): 4.15 µM (inactive)
GI50 (IGROV-1): 11.1 µM (inactive)
GI50 (K562): 3.84 µM (inactive)
GI50 (KM-20L2): 4.21 µM (inactive)
GI50 (KM12): 10.9 µM (inactive)
GI50 (LXFL 529): 9.71 µM (inactive)
GI50 (M14): 14.1 µM (inactive)
GI50 (M19-MEL): 12.2 µM (inactive)
GI50 (MOLT-4): 3.15 µM (inactive)
GI50 (Malme-3M): 11.5 µM (inactive)
GI50 (NCI-H226): 13.2 µM (inactive)
GI50 (NCI-H23): 12.9 µM (inactive)
GI50 (NCI-H460): 4.34 µM (inactive)
GI50 (NCI-H522): 3.38 µM (inactive)
GI50 (OVCAR-3): 8.18 µM (inactive)
GI50 (OVCAR-4): 10.5 µM (inactive)
GI50 (OVCAR-5): 16.6 µM (inactive)
GI50 (OVCAR-8): 9.38 µM (inactive)
GI50 (RPMI-8226): 10.9 µM (inactive)
GI50 (SF-268): 11.6 µM (inactive)
GI50 (SF-295): 5.93 µM (inactive)
GI50 (SF-539): 13.2 µM (inactive)
GI50 (SK-MEL-28): 15.5 µM (inactive)
GI50 (SK-MEL-2): 15 µM (inactive)
GI50 (SK-MEL-5): 12.7 µM (inactive)
GI50 (SNB-19): 21 µM (inactive)
GI50 (SNB-75): 9.48 µM (inactive)
GI50 (SR): 2.51 µM (inactive)
GI50 (SW-620): 4.18 µM (inactive)
GI50 (TK-10): 18.3 µM (inactive)
GI50 (U-251): 3.11 µM (inactive)
GI50 (UACC-257): 15.2 µM (inactive)
GI50 (UACC-62): 13 µM (inactive)
GI50 (UO-31): 14.7 µM (inactive)

COc1ccc(-c2cc(Cc3cccs3)c(=O)[nH]n2)cc1
GI50 (786-0): > 100 µM (inactive)
GI50 (A549): 57 µM (inactive)
GI50 (ACHN): 32.7 µM (inactive)
GI50 (COLO 205): > 100 µM (inactive)
GI50 (DMS-114): 74.6 µM (inactive)
GI50 (DMS-273): > 100 µM (inactive)
GI50 (EKVX): > 100 µM (inactive)
GI50 (HCC 2998): > 100 µM (inactive)
GI50 (HCT-116): > 100 µM (inactive)
GI50 (HCT-15): 49 µM
GI50 (HOP-92): 49.9 µM (inactive)
GI50 (HT-29): 96.2 µM (inactive)
GI50 (IGROV-1): > 100 µM (inactive)
GI50 (KM-20L2): 85.5 µM (inactive)
GI50 (KM12): > 100 µM (inactive)
GI50 (LXFL 529): 53.8 µM (inactive)
GI50 (M19-MEL): 40.3 µM (inactive)
GI50 (Malme-3M): > 100 µM (inactive)
GI50 (NCI-H226): > 100 µM (inactive)
GI50 (NCI-H23): 56.8 µM (inactive)
GI50 (OVCAR-3): 29.6 µM (inactive)
GI50 (OVCAR-5): > 100 µM (inactive)
GI50 (OVCAR-8): > 100 µM (inactive)
GI50 (RXF 393): 83.8 µM (inactive)
GI50 (SF-268): > 100 µM (inactive)
GI50 (SF-295): > 100 µM (inactive)
GI50 (SF-539): > 100 µM (inactive)
GI50 (SK-MEL-28): 95.1 µM (inactive)
GI50 (SK-MEL-2): > 100 µM (inactive)
GI50 (SK-MEL-5): 19 µM (inactive)
GI50 (SK-OV-3): > 100 µM (inactive)
GI50 (SN12C): > 100 µM (inactive)
GI50 (SNB-19): > 100 µM (inactive)
GI50 (SNB-75): 29.5 µM (inactive)
GI50 (SNB-78): > 100 µM (inactive)
GI50 (SW-620): > 100 µM (inactive)
GI50 (TK-10): > 100 µM (inactive)
GI50 (U-251): > 100 µM (inactive)
GI50 (UACC-257): 42.3 µM (inactive)
GI50 (UACC-62): 56.9 µM (inactive)
GI50 (UO-31): 82 µM (inactive)
